Test results published in PubChem BioAssay (NCI).
Values joined by “and” are separate entries in the source; they are usually repeats but may differ in a detail not shown here. Equal values may be shown once.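 Following 48 hours of exposure in 96-well plates, responses at five concentrations were used to interpolate endpoints linearly. Abbreviation: GI50, concentration required for 50% inhibition of growth. TGI: total growth inhibition.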

How the values were obtained:
Experiment in all cases: NCI-60 cell line screen, 48 h
HS 578T breast = test system: HS 578T breast
MDA-N = test system: MDA-N
BT-549 breast = test system: BT-549 breast
DMS 273 small cell lung = test system: DMS 273 small cell lung
DLD-1 colon = test system: DLD-1 colon
LXFL 529 NSCLC = test system: LXFL 529 NSCLC
DMS 114 small cell lung = test system: DMS 114 small cell lung
SNB-78 CNS = test system: SNB-78 CNS

Row | SMILES | TGI (HS 578T breast) [µM] | TGI (MDA-N) [µM] | GI50 (BT-549 breast) | TGI (BT-549 breast) | GI50 (HS 578T breast) | TGI (DMS 273 small cell lung) [µM] | TGI (DLD-1 colon) [µM] | TGI (LXFL 529 NSCLC) [µM] | TGI (DMS 114 small cell lung) [µM] | TGI (SNB-78 CNS) [µM]
1 | CCOC1C=CCCO1 (centres undefined) | > 100 | > 100 | – | – | – | – | – | – | – | –
2 | COc1ccc(/C=C/C(=O)c2cc3c(N)c(C(=O)Nc4ccccc4)sc3nc2C)cc1 | > 50 | – | 0.797 µM | > 50 µM | 0.153 µM | – | – | – | – | –
3 | Cc1cc(=O)oc2cc(OCc3nc4ccccc4c(=O)[nH]3)ccc12 | – | – | – | – | – | > 100 | > 100 | > 100 | > 100 | –
4 | COc1cc(/C=C/C(=O)c2c(C)n([O-])c3ccc(Cl)cc3[n+]2=O)cc(OC)c1OC | 64.3 | – | 18.7 µM | 42.5 µM | 12.4 µM | – | – | – | – | –
5 | Cc1ccc(/C=C2\CCCC\C2=N\O)cc1 | – | – | – | – | – | > 100 | > 100 | > 100 | – | > 100
6 | O=C1CCCC1NC(=O)C(F)(F)F (centres undefined) | – | – | – | – | – | > 100 | > 100 | > 100 | – | > 100
7 | CC(C)C[C@@H]1NC(=O)[C@@H]2CCCN2C(=O)[C@@H]2CCCN2C(=O)[C@H](CC(C)C)NC(=O)[C@H](CO)NC(=O)[C@H](CCCCN)NC(=O)[C@H]([C@H](C)O)NC(=O)[C@@H]2CCCC[C@@H](NC1=O)C(=O)N[C@@H](Cc1ccccc1)C(=O)N1CCC[C@H]1C(=O)N[C@@H](CC(=O)O)C(=O)NCC(=O)N[C@@H](CCCN=C(N)N)C(=O)N2 | > 50 | – | > 50 µM | > 50 µM | > 50 µM | – | – | – | – | –
8 | CC1=NN(C(=O)c2ccc(Cl)cc2)C(=O)/C1=C/c1ccc(O)cc1 | – | – | – | – | – | – | > 100 | > 100 | > 100 | –
9 | O=C(/C=C/c1ccc(C(F)(F)F)cc1)c1ccc(Nc2nc(NCCO)nc(N3CCOCC3)n2)cc1 | – | – | 1.56 µM | 3.09 µM | 2.61 µM | – | – | – | – | –
10 | C[C@@H]1C[C@@]2(O[C@@H]2C)C(=O)O[C@@H]2CCN3CC=C(COC(=O)[C@]1(C)O)[C@H]23 | > 100 | > 100 | – | > 100 µM | – | – | – | – | – | –
11 | CC1/C(=N/Nc2ccc([N+](=O)[O-])cc2)CC2C3(C)CCC2(C(C)C(=O)O)C(=O)C13 (centres undefined) | > 100 | – | 12.3 µM | > 100 µM | 3.55 µM | – | – | – | – | –
12 | Oc1c(N=Nc2ccccc2)c2ccccc2c2ccc3ccccc3c12 | > 100 | – | – | > 100 µM | – | – | – | – | – | –
13 | CCCN(CCC)C(=O)[C@H](CC)[C@@H]1CC[C@@H](C)[C@@H]([C@H](C)[C@@H](O)[C@@H](C)C(=O)[C@H](CC)C2O[C@]3(C=C[C@@H](O)[C@]4(CC[C@@](C)([C@H]5CC[C@](O)(CC)[C@H](C)O5)O4)O3)[C@H](C)C[C@@H]2C)O1 (some centres undefined) | 9.01 | – | 3.05 µM | 13.2 µM | 2.75 µM | – | – | – | – | –
14 | COC(=O)c1cc2oc(/C=C3\SC(=S)N(NC(C)=O)C3=O)cc2n1Cc1ccccc1 | > 50 | – | 3.34 µM | 28.7 µM | 6.61 µM | – | – | – | – | –
15 | Clc1nc(Cl)c(Cc2ccccc2)c(Cl)n1 | 19.9 | 12.5 | – | 8.52 µM | – | – | – | – | – | –
16 | O=C(N/N=C\c1ccc(N(CCCl)CCCl)cc1Cl)c1cccnc1 | > 94 | – | 22.7 µM | > 76 µM | 31.7 µM | – | – | – | – | –
17 | O=C(NCP(=O)(O)O)c1cccnc1 | – | > 100 | – | > 100 µM | – | – | – | – | – | –
18 | COc1ccccc1/C=N/N=C(\N)NO | – | – | – | – | – | – | > 100 | > 100 | > 100 | > 100
19 | OC(CNC1CCCC1)Cn1c2ccccc2c2ccccc21 (centres undefined) | 83.7 | – | 25.1 µM | > 100 µM | 21.8 µM | – | – | – | – | –
20 | CCOC(=O)C#Cc1c(CC(=O)OCC)nnn1[C@H]1O[C@@H](CO)[C@@H]2OC(C)(C)O[C@@H]21 | 72.2 | – | 9.1 µM | 21.2 µM | 25.9 µM | – | – | – | – | –
21 | Oc1ccc(N=Nc2ccc(N=Nc3ccccc3)cc2)cc1 | 51 | – | 0.899 µM | 9.06 µM | 12.4 µM | – | – | – | – | –
22 | CC1SC(=O)SC1C (centres undefined) | > 100 | > 100 | – | – | – | – | – | – | – | –
23 | COC(=O)[C@@H](C)C[C@H](Cc1ccccc1)NC(=O)c1csc([C@@H](C[C@H](C(C)C)N(C)C(=O)C2(NC(=O)[C@H]3CCCCN3C)CC2)OC(C)=O)n1 | – | – | 0.00549 µM and < 0.00333 µM | < 0.00333 µM | 0.0191 µM | – | – | – | – | –
24 | C=C1CC[C@@H]2[C@](C)(COC(C)=O)[C@H](OC(C)=O)CC[C@@]2(C)[C@@H]1C/C=C1/C(=O)OC[C@H]1OC(C)=O | 55.3 | – | 2.29 µM | 5.63 µM | 12.3 µM | – | – | – | – | –
25 | OCCNCCNc1c2ccccc2nc2oc3ccccc3c12 | 24.1 | – | 13.3 µM | 28.2 µM | 6.8 µM | – | – | – | – | –
26 | CN1CCn2c(c(Sc3ccc(C(=O)NO)cc3)c3ccccc32)C1=O | > 29 | – | 1.92 µM | 4.3 µM | 2.41 µM | – | – | – | – | –
27 | Cc1nn(-c2nc3ccccc3[nH]2)c2c1C(c1ccc3c(c1)OCO3)CC(=O)N2 (centres undefined) | 13.5 | – | 3.26 µM | 14.2 µM | 2.93 µM | – | – | – | – | –

Row | SMILES | TGI (HS 578T breast) [µM] | TGI (MDA-N) [µM] | GI50 (BT-549 breast) | TGI (BT-549 breast) | GI50 (HS 578T breast) | TGI (DMS 273 small cell lung) [µM] | TGI (DLD-1 colon) [µM] | TGI (LXFL 529 NSCLC) [µM] | TGI (DMS 114 small cell lung) [µM] | TGI (SNB-78 CNS) [µM]
28 | COc1cc(-c2oc3c(OC)c(O)c(OC)c(O)c3c(=O)c2OC)ccc1O | 40.1 | > 100 | – | > 100 µM | – | – | – | – | – | –
29 | O=C1C[C@H]2CC3(CC[C@H]2CN1)OCCO3 | – | – | – | – | – | > 100 | > 100 | > 100 | – | > 100
30 | C=CC(=O)Nc1cccc(C)c1Nc1ncc2cc(-c3c(Cl)c(OC)cc(OC)c3Cl)ccc2n1 | > 100 | – | 1.64 µM | 9.34 µM | 13.8 µM | – | – | – | – | –
31 | COCCNC(=O)c1ccc(-c2nc3ccc4[nH]ncc4c3c3c2CCCC3)cc1 | 4.68 | – | 1.22 µM | 9.34 µM | 0.88 µM | – | – | – | – | –
32 | CC(=O)c1c[nH]cc1CO | – | > 10 | – | – | – | – | – | – | – | –
33 | N=C(N)c1ccc(-c2ccc(-c3cccs3)s2)nc1 | 4.66 | – | 4.79 µM | 16.3 µM | 1.55 µM | – | – | – | – | –
34 | CN(C)c1ccc(O)c2c1C[C@H]1C[C@H]3[C@H](N(C)C)C(=O)C(C(N)=O)=C(O)[C@@]3(O)C(=O)C1=C2O | 34.2 | – | 4.14 µM | 20.1 µM | 3.36 µM | – | – | – | – | –
35 | CSC1C(=O)c2ccccc2/C(=N/Nc2nc3ccccc3s2)C1C (centres undefined) | 27.9 | – | 8.52 µM | 19.6 µM | 7.26 µM | – | – | – | – | –
36 | O=C(CCCCCCC(=O)Nc1ccc2c(c1)/C(=C/c1ccc[nH]1)C(=O)N2)NO | > 100 | – | 1.87 µM | 22 µM | 1.01 µM | – | – | – | – | –
37 | N#Cc1nc2cc(F)c(F)cc2nc1-c1ccc(Cl)cc1 | 4.43 | – | 19.8 µM | 40.3 µM | 1.72 µM | – | – | – | – | –
38 | COc1ccc2c(c1)OC(N)=C(C#N)C2c1ccc(F)cc1 (centres undefined) | > 100 | – | 1.63 µM | 31.2 µM | 3.84 µM | – | – | – | – | –
39 | COC(=O)[C@@]1(O)C[C@H]2O[C@]1(C)n1c3ccccc3c3c4c(c5c6ccccc6n2c5c31)C(=O)NC4 | 2.06 | – | 0.295 µM | 1.91 µM | 0.248 µM | – | – | – | – | –
40 | O=C(N/C(=C\c1ccc(Oc2ccc(Cl)c(Cl)c2)cc1)c1nc2ccccc2[nH]1)c1ccccc1 | – | – | – | – | – | 53.9 | 42.9 | 32.3 | – | 54.8
41 | N#CC1=C(N)Oc2c(sc3c(F)cccc23)C1c1ccc(F)cc1 (centres undefined) | 11.4 | – | 0.604 µM | 14.2 µM | 0.414 µM | – | – | – | – | –
42 | OC(CNc1ccnc2cc(Cl)ccc12)CNC1CCCCC1 (centres undefined) | 23.8 | – | 3.69 µM | 16.7 µM | 4.95 µM | – | – | – | – | –
43 | Clc1ccc2c(c1)-c1ccccc1C1=NCCN12 | 11.8 | – | 2.41 µM | 9.89 µM | 2.92 µM | – | – | – | – | –
44 | CN(C)CCNC(=O)c1cc2c3ccccc3[nH]c2c2ncccc12 | 28.1 | – | 6.36 µM | 20.7 µM | 3.57 µM | – | – | – | – | –
45 | CCCCCCCCCCCC[n+]1ccc(C(N)=O)cc1 | 8.49 | – | 1.93 µM | 4.7 µM | 2.55 µM | – | – | – | – | –
46 | CC1=C(C(=O)Nc2ccc(F)c(Cl)c2)C(c2cccc(Oc3ccccc3)c2)NC(=O)N1 (centres undefined) | 32.9 | – | 15.3 µM | 31.1 µM | 12.2 µM | – | – | – | – | –
47 | COc1cccc2c(=O)c3c(sc12)c(NCCN(C)C)nc1ccccc13 | 4.81 | – | 2.31 µM | 10.1 µM | 1.69 µM | – | – | – | – | –
48 | S=C(Nc1ccccc1)N(Cc1ccccc1)c1ccccc1 | > 100 | – | – | 4.97 µM | – | – | – | – | – | –
49 | Cc1ccc(S(=O)(=O)Nc2nc3ccccc3nc2Nc2ccc3nsnc3c2)cc1 | > 100 | – | 4.25 µM and 3.42 µM | 26.3 µM and > 29.6 µM | 5.62 µM and 4.21 µM | – | – | – | – | –
50 | CCOc1ccccc1NC(=O)C1=C(C)NC(C)=C(C(=O)Nc2ccccc2OCC)C1c1ccc(NC(C)=O)cc1 | – | – | – | – | – | – | > 100 | > 100 | > 100 | > 100
51 | NCCCCN(Cc1nc2ccccc2[nH]1)[C@H]1CCCc2cccnc21 | > 91.4 | – | 22.8 µM | > 100 µM | 19 µM | – | – | – | – | –
52 | Cc1cccc2c1C(=O)OC2(C)c1cccc2ccccc12 (centres undefined) | – | – | – | – | – | – | > 100 | – | > 100 | > 100
53 | O=C(CN1C(=O)c2ccccc2C1=O)C(O)CN1C(=O)c2ccccc2C1=O (centres undefined) | > 100 | > 100 | – | > 100 µM | – | – | – | – | – | –
54 | O=C1c2c(nc3ccccc3c2-c2ccccc2)CN1Nc1ccccc1 | – | – | – | – | – | – | > 100 | > 100 | > 100 | –
